Reference: ChEMBL document CHEMBL4346726 (Bioorg Med Chem Lett, 2019)

Columns and labels:
[1] = Inhibition of HCV genotype 3a NS3/4a protease by enzymatic assay; design: species or system Hepatitis C virus subtype 3a
Hepatitis C virus = test: Antiviral activity against HCV genotype 3a in RLuc cells assessed as reduction in viral replication by luciferase reporter gene assay; type: functional, organism-based, Hepacivirus hominis, subtype 3a
[2] = Volume of distribution at steady state in rat; type: ADME; settings: in vivo, read-out: Vdss
[3] = Half life in rat; type: ADME; settings: in vivo
[4] = Clearance in rat; type: ADME; settings: in vivo
[5] = Lipophilicity, log D of compound; type: physicochemical; settings: octanol/water
[6] = Oral bioavailability in rat; type: ADME, organism-based; settings: in vivo
[7] = Drug concentration in rat liver after 6 hrs; type: ADME, tissue-based; settings: read-out: Drug uptake
Hepacivirus hominis = test: Binding affinity to HCV NS3/4a protease assessed as compound-protein adduct formation per mg protein using radiolabelled compound

| Ki [1] [nM] | EC50 (Hepatitis C virus; Hepatitis C virus, subtype 3a) [nM] | PB (Hepacivirus hominis) [pmol/mg] | SMILES | other results |
| --- | --- | --- | --- | --- |
|  |  | 202 | CC(C)(C)OC(=O)N[C@H]1CCCCC/C=C\[C@@H]2C[C@@]2(C(=O)NS(=O)(=O)C2CC2)NC(=O)[C@@H]2C[C@@H](OC(=O)N3Cc4cccc(F)c4C3)CN2C1=O |  |
|  |  | 24 | C=C[C@@H]1C[C@]1(NC(=O)[C@@H]1C[C@@H]2CN1C(=O)[C@H](C(C)(C)C)NC(=O)O[C@@H]1C[C@H]1CCCCCc1nc3ccc(OC)cc3nc1O2)C(=O)NS(=O)(=O)C1CC1 |  |
|  |  | 22 | COc1ccc2c(O[C@@H]3C[C@H]4C(=O)N[C@]5(C(=O)NS(=O)(=O)C6CC6)C[C@H]5/C=C\CCCCN(C)C(=O)[C@@H]4C3)cc(-c3nc(C(C)C)cs3)nc2c1C |  |
|  |  | 114 | C=C[C@@H]1C[C@]1(NC(=O)[C@@H]1C[C@@H](Oc2ncc(OC)c3ccc(Cl)cc23)CN1C(=O)[C@@H](NC(=O)OC(C)(C)C)C(C)(C)C)C(=O)NS(=O)(=O)C1CC1 |  |
|  |  | 96 | COc1ccc2c(O[C@H]3CCN4C(=O)N(C)CCCC/C=C\[C@@H]5C[C@@]5(C(=O)NS(=O)(=O)C5(C)CC5)NC(=O)[C@@H]4C3)cc(-c3nc(C(F)(F)F)cs3)nc2c1C |  |
|  |  | 29 | CC[C@@H]1C[C@]1(NC(=O)[C@@H]1C[C@@H]2CN1C(=O)[C@H](C(C)(C)C)NC(=O)OCC(C)(C)CCCCc1cccc3c1CN(C3)C(=O)O2)C(=O)NS(=O)(=O)C1CC1 |  |
| 0.043 | 27 |  | CC[C@@H]1[C@@H]2CN(C(=O)[C@H](C(C)(C)C)NC(=O)O[C@@H]3C[C@H]3CCCCCc3nc4ccc(OC)cc4nc3O2)[C@@H]1C(=O)N[C@]1(C(=O)NS(=O)(=O)C2CC2)C[C@H]1C(F)F | Vd [2]: 1 L/kg; half-life [3]: 0.8 h; clearance [4]: 2 L/h/kg; logD [5]: 3.5; bioavailability [6]: 36%; concentration at 6 h [7]: 1.2 µM |
|  |  | 295 | Cc1cnc(C(=O)N[C@H]2CCCCC/C=C\[C@@H]3C[C@@]3(C(=O)NS(=O)(=O)C3CC3)NC(=O)[C@@H]3C[C@@H](Oc4nc5ccccc5c5ccccc45)CN3C2=O)cn1 |  |

Second part, the compound before the results:

| SMILES | Ki [1] [nM] | EC50 (Hepatitis C virus; Hepatitis C virus, subtype 3a) [nM] | PB (Hepacivirus hominis) [pmol/mg] | other results |
| --- | --- | --- | --- | --- |
| COc1ccc2nc3c(nc2c1)O[C@H]1CN(C(=O)[C@H](C(C)(C)C)NC(=O)O[C@@H]2C[C@H]2CCCCC3)[C@H](C(=O)N[C@]2(C(=O)NS(=O)(=O)C3(C)CC3)C[C@H]2C(F)F)[C@@H]1CC(C)C | 0.63 | 1120 |  |  |
| COc1ccc2nc3c(nc2c1)O[C@H]1CN(C(=O)[C@H](C(C)(C)C)NC(=O)O[C@@H]2C[C@H]2CCCCC3)[C@H](C(=O)N[C@]2(C(=O)NS(=O)(=O)C3(C)CC3)C[C@H]2C(F)F)[C@@H]1C | 0.1 | 20 |  | Vd [2]: 2.2 L/kg; half-life [3]: 1.3 h; clearance [4]: 2.1 L/h/kg; logD [5]: 3.5; bioavailability [6]: 100%; concentration at 6 h [7]: 3.1 µM |
| CC[C@@H]1[C@@H]2CN(C(=O)[C@H](C(C)(C)C)NC(=O)O[C@@H]3C[C@H]3CCCCCc3nc4ccc(OC)cc4nc3O2)[C@@H]1C(=O)N[C@]1(C(=O)NS(=O)(=O)C2(C)CC2)C[C@H]1C | 0.838 | 109 |  |  |
| COc1ccc2nc3c(nc2c1)O[C@H]1CN(C(=O)[C@H](C(C)(C)C)NC(=O)O[C@@H]2C[C@H]2CCCCC3)[C@H](C(=O)N[C@]2(C(=O)NS(=O)(=O)C3CC3)C[C@H]2CCF)[C@@H]1C | 1.3 | 419 |  |  |
| COc1ccc2nc3c(nc2c1)O[C@H]1CN(C(=O)[C@H](C(C)(C)C)NC(=O)O[C@@H]2C[C@H]2CCCCC3)[C@H](C(=O)N[C@]2(C(=O)NS(=O)(=O)C3CC3)C[C@H]2CC(F)F)[C@@H]1C | 0.92 | 375 |  |  |
| CCC[C@@H]1[C@@H]2CN(C(=O)[C@H](C(C)(C)C)NC(=O)O[C@@H]3C[C@H]3CCCCCc3nc4ccc(OC)cc4nc3O2)[C@@H]1C(=O)N[C@]1(C(=O)NS(=O)(=O)C2(C)CC2)C[C@H]1C(F)F | 0.12 | 36 |  |  |
| CC[C@@H]1C[C@]1(NC(=O)[C@@H]1C[C@@H](Oc2cc(-c3csc(NC(C)C)n3)nc3c(Cl)c(OCCN4CCOCC4)ccc23)CN1C(=O)[C@@H](NC(=O)O[C@@H]1C[C@@H]2C[C@@H]2C1)C(C)(C)C)C(=O)O |  |  | 26 |  |
| C=C[C@@H]1C[C@]1(NC(=O)[C@@H]1C[C@@H](Oc2cc(-c3csc(NC(=O)C(C)C)n3)nc3c(Br)c(OC)ccc23)CN1C(=O)[C@@H](NC(=O)OC1CCCC1)C(C)(C)C)C(=O)O |  |  | 15 |  |
| COc1ccc2nc3c(nc2c1)O[C@H]1CN(C(=O)[C@H](C(C)(C)C)NC(=O)O[C@@H]2C[C@H]2CCCCC3)[C@H](C(=O)N[C@]2(C(=O)NS(=O)(=O)C3(C)CC3)C[C@H]2C(F)F)[C@@H]1C1CC1 | 4.9 | 1160 |  |  |
| CC[C@@H]1[C@@H]2CN(C(=O)[C@H](C(C)(C)C)NC(=O)O[C@@H]3C[C@H]3CCCCC(F)c3nc4ccc(OC)cc4nc3O2)[C@@H]1C(=O)N[C@]1(C(=O)NS(=O)(=O)C2(C)CC2)C[C@H]1C(F)F (some centres not stated) | 0.13 | 35 |  |  |
| COc1ccc2nc3c(nc2c1)O[C@H]1CN(C(=O)[C@H](C(C)(C)C)NC(=O)O[C@@H]2C[C@H]2CCCCC3)[C@H](C(=O)N[C@]2(C(=O)NS(=O)(=O)C3(C)CC3)C[C@H]2C(F)F)[C@@H]1Cc1ccccc1 | 0.87 | 1110 |  |  |
| CC[C@@H]1[C@@H]2CN(C(=O)[C@H](C(C)(C)C)NC(=O)O[C@@H]3C[C@H]3CCCC3CC3c3nc4ccc(OC)cc4nc3O2)[C@@H]1C(=O)N[C@]1(C(=O)NS(=O)(=O)C2(C)CC2)C[C@H]1C(F)F (stereo in doubt; 46) | 9.4 |  |  | EC50 (Hepatitis C virus): 829 nM |
| COc1ccc2nc3c(nc2c1)O[C@@H]1C[C@@H](C(=O)N[C@]2(C(=O)NS(=O)(=O)C4(C)CC4)C[C@H]2C(F)F)N(C1)C(=O)[C@H](C(C)(C)C)NC(=O)O[C@@H]1C[C@H]1CCCCC3 | 0.165 | 74 |  |  |
| CC[C@@H]1[C@@H]2CN(C(=O)[C@H](C(C)(C)C)NC(=O)O[C@@H]3C[C@H]3CCCC3CC3c3nc4ccc(OC)cc4nc3O2)[C@@H]1C(=O)N[C@]1(C(=O)NS(=O)(=O)C2(C)CC2)C[C@H]1C(F)F (stereo in doubt; 45) | 1.7 |  |  | EC50 (Hepatitis C virus): 128 nM |
| CC[C@@H]1[C@@H]2CN(C(=O)[C@H](C(C)(C)C)NC(=O)O[C@@H]3C[C@H]3CC/C=C/C(F)(F)c3nc4ccc(OC)cc4nc3O2)[C@@H]1C(=O)N[C@]1(C(=O)NS(=O)(=O)C2(C)CC2)C[C@H]1C(F)F | 0.053 | 5.3 |  |  |
| CC[C@@H]1[C@@H]2CN(C(=O)[C@H](C(C)(C)C)NC(=O)O[C@@H]3C[C@H]3CCCCCc3nc4ccc(OC)cc4nc3O2)[C@@H]1C(=O)N[C@]1(C(=O)NS(=O)(=O)C2CC2)C[C@H]1CC | 0.563 | 272 |  | Vd [2]: 3.1 L/kg; half-life [3]: 5 h; clearance [4]: 0.67 L/h/kg; logD [5]: 4.6; bioavailability [6]: 100%; concentration at 6 h [7]: 30.2 µM |
| CC[C@@H]1C[C@]1(NC(=O)[C@@H]1[C@H](C)[C@@H]2CN1C(=O)[C@H](C(C)(C)C)NC(=O)O[C@@H]1C[C@H]1CCCCCc1nc3ccc(OC)cc3nc1O2)C(=O)NS(=O)(=O)C1CC1 | 0.53 | 188 |  |  |
| C=C[C@@H]1C[C@]1(NC(=O)[C@@H]1[C@H](CC)[C@@H]2CN1C(=O)[C@H](C(C)(C)C)NC(=O)O[C@@H]1C[C@H]1CCCCCc1nc3ccc(OC)cc3nc1O2)C(=O)NS(=O)(=O)C1CC1 | 0.081 | 20 | 117 | Vd [2]: 1.9 L/kg; half-life [3]: 2.2 h; clearance [4]: 0.88 L/h/kg; logD [5]: 4.1; concentration at 6 h [7]: 20.9 µM |
